The source of these data is patent US20090137391A1, “Use of benzyladenine to improve emergence of seeds treated with abscisic acid” (priority 2007, published 2009).

Common to all, as to assay type: in vivo
Test [1] concerns canola seed. Put plainly: Canola seed treatment, soil emergence: ABA-dose x benzyladenine (technical powder) dose factorial. On the procedure: The experiment was set up as an ABA-dose×BA-dose factorial experiment, with four doses of ABA (0, 25, 50, and 100 g/cwt) and four doses of benzyladenine (0, 1, 5 and 25 g/cwt) for a total of 16 treatment combinations. The treatments were made up in 1 ml samples of experimental aqueous seed treatment slurry. ABA was added in the form of a water solution of the ammonium salt. Benzyladenine was added as technical powder. Ten μl Tween-20 were added to each sample to help wet and suspend the benzyladenine powder. All of the seed treatment slurry samples contained CF-Clear film-forming agent and Color Coat Red (Becker Underwood), each at 1 oz/cwt, and 0.167 oz/cwt Maxim XL fungicide (Syngenta). The slurry application volume was 40 […]=100 lbs of seed). Ten gram samples of canola seed were treated with the experimental slurries using a Hege 11 seed treater with a six-inch bowl. The seed was planted in plastic boxes containing 1 kg of typical agricultural silt loam. One hundred seeds were planted 2 cm deep in each plastic box, and the soil in the box was adjusted to 21% soil moisture (wet-weight basis). Two replications of the experiment were incubated under constant light in a 10° C. chamber. The soil temperature averaged 12.6° C. The boxes were watered up to the correct weight every 1-2 days, and checked for emergence. Counts of seedlings were continued until it became clear that emergence had ceased (28 days). The final count of emerged seedlings was expressed as a percentage of the 100 seeds planted. The daily counts were converted to proportions of the final emergence of the box, and a Gompertz curve was fitted to the data from each box using SAS Proc NLIN. […] Analysis of variance was performed and means calculated for each of the three responses (Final emergence, […]).

Test [2] has as its system canola seed. Put plainly: Canola seed treatment, soil emergence: ABA-dose x benzyladenine (as Maxcel) dose factorial. The protocol: (§1) The seed was planted in plastic boxes containing 1 kg of typical agricultural silt loam. One hundred seeds were planted 2 cm deep in each plastic box, and the soil in the box was adjusted to 21% soil moisture (wet-weight basis). Two replications of the experiment were incubated under constant light in a 10° C. chamber. The soil temperature averaged 12.6° C. The boxes were watered up to the correct weight every 1-2 days, and checked for emergence. Counts of seedlings were continued until it became clear that emergence had ceased (28 days). The final count of emerged seedlings was expressed as a percentage of the 100 seeds planted.
(§2) The daily counts were converted to proportions of the final emergence of the box, and a Gompertz curve was fitted to the data from each box using SAS Proc NLIN. From the parameters of the model, median emergence time (T50) and quartile range (Qrange) were estimated for each box. Analysis of variance was performed and means calculated for each of the three responses (Final emergence, T50, Qrange).
The experiment was set up as an ABA-dose x benzyladenine-dose factorial experiment, with four doses of ABA (0, 25, 50 and- 100 g/cwt) and three doses of benzyladenine (0, 1 and 5 g/cwt) for a total of 12 treatment combinations. The treatments were made up in 1 ml samples of experimental aqueous seed treatment slurry. ABA was added in the form of a water solution of the ammonium salt. Benzyladenine was added in the form of Maxcel. Treatments receiving less than the maximum amount of Maxcel, received an appropriate amount of Maxcel blank formulation, so that each slurry sample was identical with regard to Maxcel inert ingredients. All of the seed treatment slurry samples contained CF-Clear film-forming agent and Colorcoat Red (Becker Underwood), each at 1 oz/cwt, and 0.167 oz/cwt Maxim XL fungicide (Syngenta). The slurry application volume was 40 oz/cwt (cwt=100 lbs of seed). Ten gram samples of canola seed were treated with the experimental slurries using a Hege 11 seed treater with a six-inch bowl.
The seed was germinated and data analyzed as described under Example 1.

Test [3] relates to canola seed. Kind of test: Canola seed treatment, soil emergence: ABA-dose x CPPU (as Prestige) dose factorial. On the procedure:
as §1, §2
The experiment was set up as an ABA-dose×CPPU-dose factorial experiment, with four doses of ABA (0, 25, 50 and 100 g/cwt) and […] doses of CPPU (0, 0.04, 0.2 and 1 g/cwt) for a total of 16 treatment combinations. The treatments were made up in 1 ml samples of experimental aqueous seed treatment slurry. ABA was added as the free acid. CPPU was added in the form of Prestige®. Treatments receiving less than the maximum amount of Prestige, received an appropriate amount of Prestige blank formulation, so that each slurry sample was identical with regard to Prestige inert ingredients. All of the seed treatment slurry samples contained CF-Clear film-forming agent and Colorcoat Red (Becker Underwood), each at 1 oz/cwt, and 0.167 oz/cwt Maxim XL fungicide (Syngenta). The slurry application volume was 40 oz/cwt (cwt=100 lbs of seed). Ten gram samples of canola seed were treated with the experimental slurries using a Hege 11 seed treater with a six-inch bowl.
The seed was germinated and data analyzed as described under Example 1, except that emergence, being unusually low in this trial, rendered the quartile range estimates unreliable. Therefore, quartile range values are not shown.

Test [4] relates to canola seed. Kind of test: Canola seed treatment, soil emergence: ABA-dose x GA4/7 dose factorial. Particulars: for Final emergence / QR / T50: GA4/7 dose 0 g/cwt. On the procedure:
The experiment was set up as an ABA-dose×GA4/7-dose factorial experiment, with four doses of ABA (0, 25, 50 and 100 g/cwt) and […] doses of GA4/7 (0, 1, 5 and 25 g/cwt) for a total of 16 treatment combinations. The treatments were made up in 1 ml samples of experimental aqueous seed treatment slurry. ABA and GA4/7 were added as the free acid technical powders. All of the seed treatment slurry samples contained CF-Clear film-forming agent and Colorcoat Red (Becker Underwood), each at 1 oz/cwt, and 0.167 oz/cwt Maxim XL fungicide (Syngenta). The slurry application volume was 40 oz/cwt (cwt=100 lbs of seed). Ten gram samples of canola seed were treated with the experimental slurries using a Hege 11 seed treater with a six-inch bowl.

The mark [5] stands for this setting: ABA dose 0 g/cwt, Benzyladenine dose 1 g/cwt (technical powder).
Where [6] appears, read: ABA dose 0 g/cwt, Benzyladenine dose 5 g/cwt (technical powder).
[7] abbreviates: ABA dose 0 g/cwt, Benzyladenine dose 25 g/cwt (technical powder).
Where [8] appears, read: ABA dose 0 g/cwt, Benzyladenine dose 1 g/cwt (in the form of Maxcel).
The mark [9] stands for this setting: ABA dose 0 g/cwt, Benzyladenine dose 5 g/cwt (in the form of Maxcel).
The mark [10] stands for this setting: ABA dose 0 g/cwt, CPPU dose 0.04 g/cwt (in the form of Prestige).
[11] abbreviates: ABA dose 0 g/cwt, CPPU dose 0.2 g/cwt (in the form of Prestige).
Setting [12] is: ABA dose 0 g/cwt, CPPU dose 1 g/cwt (in the form of Prestige).
Where [13] appears, read: ABA (ammonium salt) dose 25 g/cwt, Benzyladenine dose 0 g/cwt.
[14] abbreviates: ABA (ammonium salt) dose 50 g/cwt, Benzyladenine dose 0 g/cwt.
The mark [15] stands for this setting: ABA (ammonium salt) dose 100 g/cwt, Benzyladenine dose 0 g/cwt.
[16] abbreviates: ABA (ammonium salt) dose 25 g/cwt, Benzyladenine dose 0 g/cwt (Maxcel blank).
Where [17] appears, read: ABA (ammonium salt) dose 50 g/cwt, Benzyladenine dose 0 g/cwt (Maxcel blank).
Setting [18] is: ABA (ammonium salt) dose 100 g/cwt, Benzyladenine dose 0 g/cwt (Maxcel blank).
[19] abbreviates: ABA (free acid) dose 25 g/cwt, CPPU dose 0 g/cwt (Prestige blank).
[20] abbreviates: ABA (free acid) dose 50 g/cwt, CPPU dose 0 g/cwt (Prestige blank).
Setting [21] is: ABA (free acid) dose 100 g/cwt, CPPU dose 0 g/cwt (Prestige blank).

Take `c1ccc(CNc2[nH]cnc3ncnc2-3)cc1` [Benzyladenine, N^6-phenylmethyl-1H-purin-6-amine]: the Final emergence with canola seed [1] (setting [5]) is reported as 98.0%; with canola seed [1] (setting [6]), 91.6%; in the test with canola seed [1] (setting [7]), 89.9%; with canola seed [2] (setting [8]), 97.5%; in the test on canola seed [2] (setting [9]) it was 97.1%. Further, the Qrange worked out at 1.30 days in the test on canola seed [1] (setting [5]); 2.36 days in the test on canola seed [1] (setting [6]); 3.02 days in the test with canola seed [1] (setting [7]); 1.84 days in the test with canola seed [2] (setting [8]); 1.77 days in the test on canola seed [2] (setting [9]). The T50 in the test with canola seed [1] (setting [5]) is given as 6.37 days; with canola seed [1] (setting [6]) it was 6.76 days; with canola seed [1] (setting [7]) it was 7.88 days; in the test on canola seed [2] (setting [8]), 6.02 days; with canola seed [2] (setting [9]), 6.09 days.

Regarding `O=C(Nc1ccccc1)Nc1ccnc(Cl)c1` [CPPU], the Final emergence came to 80.3% with canola seed [3] (setting [10]), 78.1% with canola seed [3] (setting [11]) and 77.6% with canola seed [3] (setting [12]). Besides, the T50 was 7.12 days in the test on canola seed [3] (setting [10]), 7.48 days in the test on canola seed [3] (setting [11]) and 8.30 days in the test on canola seed [3] (setting [12]).

For the compound S-(+)- abscisic acid [ABA], the Final emergence in the test with canola seed [1] (setting [13]) is listed as 92.3%; in the test on canola seed [1] (setting [14]) it was 68.9%; in the test with canola seed [1] (setting [15]), 53.5%; with canola seed [1] (ABA at a dose of 100 g/cwt), “roughly cut in half”; in the test with canola seed [2] (setting [16]), 92.9%; with canola seed [2] (setting [17]), 91.4%. Further, the Final emergence is 49.5% with canola seed [2] (setting [18]); “roughly cut in half” in the test with canola seed [2] (ABA at a dose of 100 g/cwt); 84.0% in the test on canola seed [3] (setting [19]); 66.0% in the test on canola seed [3] (setting [20]); 48.0% in the test on canola seed [3] (setting [21]); 84.0% in the test with canola seed [4] (ABA (free acid) dose 25 g/cwt). Moreover, the Final emergence stood at 66.0% with canola seed [4] (ABA (free acid) dose 50 g/cwt) and 48.0% with canola seed [4] (ABA (free acid) dose 100 g/cwt). Besides, the Qrange with canola seed [1] (setting [13]) was determined as 3.26 days; with canola seed [1] (setting [14]), 4.27 days; in the test on canola seed [1] (setting [15]), 4.27 days; in the test with canola seed [2] (setting [16]) it was 2.06 days; with canola seed [2] (setting [17]), 3.74 days; in the test with canola seed [2] (setting [18]), 5.84 days. Moreover, the T50 is listed as 9.15 days in the test on canola seed [1] (setting [13]); 11.20 days with canola seed [1] (setting [14]); 12.74 days in the test with canola seed [1] (setting [15]); 8.17 days in the test on canola seed [2] (setting [16]); 10.57 days in the test on canola seed [2] (setting [17]); 13.61 days in the test on canola seed [2] (setting [18]). Moreover, the T50 is given as 10.4 days with canola seed [3] (setting [19]); 12.16 days with canola seed [3] (setting [20]); 16.48 days with canola seed [3] (setting [21]); 10.42 days with canola seed [4] (ABA (free acid) dose 25 g/cwt); 12.16 days with canola seed [4] (ABA (free acid) dose 50 g/cwt); 16.48 days with canola seed [4] (ABA (free acid) dose 100 g/cwt). The “emergence” value was “significant and important reduction in emergence” with canola seed [3] (high doses of ABA); “significant and important reduction in emergence” in the test on canola seed [4] (high doses of ABA alone). In addition, the values for the QR in the test with canola seed [4] (ABA (free acid) dose 25 g/cwt), in the test with canola seed [4] (ABA (free acid) dose 50 g/cwt) and with canola seed [4] (ABA (free acid) dose 100 g/cwt) were 3.33 days, 3.38 days and 5.69 days, respectively.
